Laboratory results as given in patent US8440617B2, “Hyperbaric treatment in wound healing” (The Trustees of the University of Pennsylvania, priority 2007, dated 2013).
“Also recorded” adds a separate entry of the source.

Columns and labels:
[1] = tested on: circulating EPCs (CXCR4+/VEGFR2+, Tie2+/VEGFR2+); experiment: Circulating EPCs by flow cytometry in STZ-diabetic mice; type: in vivo, mouse; conditions: diabetic mice treated with insulin
Protocol: Tie2-GFP, wild-type or chimeric FVB mice at 6-12 wk of age were treated with STZ (Sigma-Aldrich) to induce diabetes. Mice were rendered diabetic by i.p. administration of 60 mg/kg STZ in 50 mM sodium citrate, pH 4.5, daily for 5 d. Control mice were treated with daily injections of citrate buffer. Serum glucose was measured from the mouse tail vein using a glucometer. Once serum glucose reached 250 mg/dL, mice were followed with daily measurements for 1 wk prior to use in experiments. Serum glucose levels in STZ mice averaged 461 mg/dL with a range of 372-520 mg/dL, while control mice serum glucose mean level was 120 mg/dL with a range of 94-135 mg/dL. Wounds were induced on the ventral surface of the mouse thigh using a 4 mm punch biopsy. Full-thickness skin was removed, exposing the underlying muscle.
For HBO treatment, mice were placed in an animal hyperbaric chamber (Reneau Corp.) and subjected to 100% oxygen at 2.4 atmospheres absolute (ATA) for 90 min (Davis Wound Healing Protocol). To measure continuous, real-time BM NO levels, NO microelectrodes was inserted into the femoral marrow cavity as previously described. An osteotomy was created on the patellar surface of the murine femur using a 25 G beveled needle, allowing the electrode to be lowered into the marrow space when the animal was placed in the hyperbaric chamber. In some mice, pretreatment with L-NAME (40 mg/kg i.p.) (Sigma-Aldrich) was given 2 h prior to exposure to HBO.
Mobilization of EPCs into circulation was studied using flow cytometry as previously described. Cells isolated from mice were incubated with various Abs (BD Biosciences). Isotype matched mouse immunoglobulins served as controls. One million viable cells were analyzed per sample using an LSR2 multicolor flow cytometer (BD Biosciences). Data was analyzed using FlowJo software (Treestar, Inc.).
Physiologically, increased levels of BM NO result in activation of MMP-9 and conversion of kit ligand to its soluble form, ultimately generating EPC release into circulation. To study the effects of the hyperoxia-induced rise in NO levels in the marrow cavity on mobilization of EPCs into circulation, peripheral blood from diabetic mice was analyzed for EPCs using flow cytometry. A determination of whether hyperoxia, induced by HBO, increases the number of circulating EPCs in the peripheral blood of diabetic mice was made. Specifically, peripheral blood of diabetic mice was examined 18 h after a single HBO treatment. After excluding dead DAPI^+labeled cells, candidate lymphocytes, identified by their typical appearance on forward and side scatter, were gated and CD45^+/CD3^+cell populations were excluded. […] Therefore, several marker combinations were used to quantitate circulating EPCs. […]

BM eNOS phosphorylation = experiment: Western blot of bone marrow eNOS and phospho-eNOS; type: in vivo, mouse; conditions: diabetic mice treated with insulin
Protocol: Isolation of whole BM from FVB/NJ mice (n=12/group) was obtained by flushing harvested femurs and tibias with PBS/2% FBS. Red blood cells were removed by Red Cell Lysis Buffer (Sigma-Aldrich). Isolated BM cells were then lysed and protein concentrations were determined by DC protein assay (Bio-Rad Laboratories). Equal amounts of protein were subjected to 4-12% SDS gel electrophoresis under reducing conditions. The transferred PVDF membranes were probed with primary Ab (anti-eNOS and anti-phospho-eNOS (Ser^1177) (BD Biosciences) diluted 1:500 in 1% milk in TBST buffer and then incubated with HRP-conjugated second Ab (DakoCytomation Inc.). Proteins were visualized using enhanced chemiluminescence (Amersham Bioscience).
In diabetic patients, circulating EPCs are decreased in both number and function, and so it was hypothesized that BM eNOS activation is impaired in diabetes. To examine this question, BM was isolated from streptozocin-induced (STZ-induced) diabetic and nondiabetic mice and analyzed via Western blot for levels of total and phosphorylated eNOS protein. Although no changes in the amount of total eNOS protein were observed, the levels of biologically active phosphorylated eNOS protein were decreased in diabetic mice as compared with nondiabetic controls (FIG. 12A). […]

Substance: insulin: human insulin (NPH), 6 U/kg twice/d i.p.
- EPC mobilization [1]: little effect; also recorded: does not increase
- reversal of impaired BM eNOS phosphorylation (BM eNOS phosphorylation): little effect
- reversal of impaired BM eNOS phosphorylation (BM eNOS phosphorylation; listed as Insulin): failed to restore
